Measured values from patent US20090076021A1, “THERAPEUTIC COMBINATIONS AND METHODS FOR CARDIOVASCULAR IMPROVEMENT AND TREATING CARDIOVASCULAR DISEASE” (priority 2006, published 2009).

Tested on: Hypothyroid rats
Experiment: Cardiac performance (Millar direct catheter system) in PTU-fed hypothyroid rats after 4 days of treatment
Assay type: in vivo, Male S.D. rats
Procedure: Male S.D. rats (7 wks old) were rendered hypothyroid by being fed PTU diet (n 48; iodine deficient, 0.15% propylthiouracil) or normal chow (n=8) for 2 weeks. PTU fed rats were then separated into weight-matched groups the day prior to inception of the study, and treated for 4 days with vehicle (0.05 mL/100 g BW i.p.; 20% Cremophor EL; 20% ethanol; 60% H2O) or T3 (3 μg/kg) and scriptaid (1.5, 15 mg/kg) or its vehicle (100% DMSO; 0.04 mL/100 g BW i.p.). Because of differential pharmacodynamics of T3 and scriptaid, each animal received T3 or its vehicle at least 3 hours prior to receiving scriptaid or its vehicle. Following 4 days of treatment, core temperature, systemic hemodynamics, and cardiac performance data were collected under isoflurane anesthesia using the Millar direct catheter system no less two hours following scriptaid administration. At the conclusion of the experiment the animals were sacrificed, and blood and tissues collected for morphological and biochemical analysis. Hypothyroid rats have impaired systolic and diastolic cardiac performance relative to euthyroid control rats, while scriptaid alone exerted no effects on either systolic or diastolic cardiac performance.

[1] = scriptaid (1.5, 15 mg/kg i.p.) coadministered with T3 (3 μg/kg), hypothyroid rats, compared with T3 alone

In the case of `N[C@@H](Cc1cc(I)c(Oc2ccc(O)c(I)c2)c(I)c1)C(=O)O` [T3, triiodothyronine], the “maximal positive and negative dP/dt (indices of systolic and diastolic performance)” value (T3 3 μg/kg, hypothyroid (PTU diet) rats, FIG. 1) is reported as “increased” and the “tau (an index of myocardial relaxation)” value (T3 3 μg/kg, hypothyroid (PTU diet) rats, FIG. 2) is reported as “improved”.

For `O=C(CCCCCN1C(=O)c2cccc3cccc(c23)C1=O)NO` [scriptaid, 6-(1,3-Dioxo-1H,3H-benzo[de]isoquinolin-2-yl)-hexanoic acid hydroxyamide], the “maximal +/−dP/dt” value [1] was “significantly enhanced the effects of T3 treatment”, the tau [1] was “significantly enhanced the effects of T3 treatment” and the “systolic or diastolic cardiac performance” value (scriptaid alone (1.5, 15 mg/kg i.p.), hypothyroid (PTU diet) rats, isoflurane anesthesia) was “no effects”.
